Laboratory results reported in PMC12811658, “Design, Synthesis, and Structural Evolution of Pseudo‐Natural Product IDO1 Inhibitors and Degraders” (Angewandte Chemie (International Ed. in English), 2025).

What was measured:
recombinant human IDO1 = biological target: T1, recombinant human IDO1 (Homo sapiens, UniProt P14902); assay: IDO1 enzymatic assay in vitro; assay type: biochemical
T1 construct: The GST-tag of IDO1 was removed to obtain untagged full-length IDO1l using PreScission protease; GST (N, cleaved yes); made in house; own inference
T1 sequence (P14902 whole entry): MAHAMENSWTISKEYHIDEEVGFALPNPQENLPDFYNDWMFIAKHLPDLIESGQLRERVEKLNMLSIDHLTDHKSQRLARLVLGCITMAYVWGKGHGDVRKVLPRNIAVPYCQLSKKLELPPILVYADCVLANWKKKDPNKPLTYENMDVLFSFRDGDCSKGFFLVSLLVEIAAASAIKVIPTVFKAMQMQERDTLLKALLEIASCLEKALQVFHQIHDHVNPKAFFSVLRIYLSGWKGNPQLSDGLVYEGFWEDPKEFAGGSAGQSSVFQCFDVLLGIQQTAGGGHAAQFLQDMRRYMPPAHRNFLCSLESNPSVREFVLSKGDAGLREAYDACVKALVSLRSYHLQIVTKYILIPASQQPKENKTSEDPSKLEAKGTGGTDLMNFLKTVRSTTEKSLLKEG

[1] = biological target: T2, heme-bound IDO1 (holo-IDO1) (Homo sapiens, UniProt P14902); assay: UV/Vis detection of heme-bound IDO1 (heme displacement); assay type: binding; conditions: 50 µM, 37 °C, 3 h, Soret band 404 nm
T2 construct: The GST-tag of IDO1 was removed to obtain untagged full-length IDO1l using PreScission protease; GST (N, cleaved yes); made in house; own inference
T2 sequence (P14902 whole entry): as above
Description: (§1) Incubation at 37 °C for 3 h. Representative data for n = 3. c) Time‐course of heme displacement from IDO1 detected by the absorbance at the Soret peak (404 nm) as a function of time. […] All curves were fit using a one‐site model with N = 1 and defined IDO1 concentration. Left plots show baseline corrected data, while right plots show integrated binding isotherms versus iDegs/IDO1 ratio. IDO1 protein (125 µM) was titrated into the stirred sample cell containing iDegs (25 µM, except for iDeg‐8 at 50 µM). Representative data for n = 3, except for iDeg‐9 (n = 2). g)–i) In vivo activity of iDeg‐6. NSG immunodeficient mice were injected with SKOV‐3 cells. Mice were treated with 18 intraperitoneal injections of iDeg‐6 (30 mg kg^−1) or vehicle. The pharmacological treatment was twice daily. Tumor volume was determined weekly by digital caliper. g) SKOV‐3 tumor growth curves in iDeg‐6‐treated mice (n = 12, green lines) or vehicle‐treated mice (n = 13, gray lines). Statistical analysis was performed by two‐way ANOVA: ****p < 0.001. h) Body weight changes during treatment window (mean values ± range). i) Survival data are shown by Kaplan‐Meier survival analysis. Mantel–Haenszel statistical analysis: p < 0.0001).
Representative data of n=3 biological replicates. c, IDO1 was incubated with compounds (50 µM) or DMSO (control). UV/VIS spectra were acquired at five time points to monitor heme loss over time. Data are representative of two replicates.
The test compounds or DMSO (vehicle control) were incubated with recombinant full-length human IDO1 (rhIDO1; 10 µM) in 50 mM potassium phosphate buffer (pH 6.5) for 3 h at 37 °C. Following incubation, samples were centrifuged at 5,000 × g for 10 minutes. UV/Vis absorption spectra were then recorded from 250 nm to 650 nm in 1 nm increments using UV-transparent microplates (UV-STAR®, Greiner Bio-One, Austria) on a Spark® multimode microplate reader (Tecan, Austria). Absorbance values were analyzed at 404 nm (A404), and were plotted using GraphPad Prism version 9.0 (GraphPad Software, USA).

[2] = tested on: Kyn levels in BxPC3 cells (kynurenine generated by IDO1); assay: Cellular Kyn assay (automated Kyn screening assay); assay type: cell-based; conditions: IFN-γ, L-Trp and compounds 48 h, mean ± SD, read-out: IC50 (Kyn assay), reduction of kynurenine levels
[3] = biological target: IDO1 protein levels in BxPC3 cells (Homo sapiens, UniProt P14902); assay: IDO1 immunoblotting (degradation); assay type: cell-based; design: endogenous in cells; host or cells: BxPC3 (DSMZ), IFN-γ stimulated; conditions: BxPC3 cells, IFN-γ 24 h, washout, compounds 24 h
Sequence of IDO1 protein levels in BxPC3 cells (P14902 whole entry): as above

[4] = biological target: T3, recombinant full-length human IDO1 (Homo sapiens, UniProt P14902); assay: Thermal shift assay (nanoDSF); assay type: binding; conditions: 50 µM, 3 h at 37 °C
T3 construct: The GST-tag of IDO1 was removed to obtain untagged full-length IDO1l using PreScission protease; GST (N, cleaved yes); made in house; own inference
T3 sequence (P14902 whole entry): as above
Description: as §1, with “0.0001). […]” for “0.0001).”
The test compounds or DMSO (vehicle control) were incubated with recombinant full-length human IDO1 (rhIDO1; 10 µM) in 50 mM potassium phosphate buffer (pH 6.5) for 3 h at 37 °C. Following incubation, samples were centrifuged at 5,000 × g for 10 minutes, then the protein-compound solutions were loaded into capillaries, and thermal unfolding was assessed using the Prometheus Panta system (NanoTemper® Technologies, Germany). Fluorescence intensities at 330 nm and 350 nm were recorded at temperature increments of 0.115 °C from 20 °C to 90 °C. Melting temperatures (Tm) were automatically calculated using Prometheus NT.48 analysis software. The resulting thermal denaturation curves, with Tm defined as the temperature at the maximum derivative of the unfolding transition, were visualized and analysed using GraphPad Prism version 9.0 (GraphPad Software, USA).

[5] = biological target: T4, IDO1 protein in IFN-γ stimulated HeLa cells (Homo sapiens, UniProt P14902); assay: IDO1 immunostaining (immunofluorescence); assay type: cell-based; conditions: 24 h
T4 construct: endogenous in cells; host or cells: HeLa (DSMZ), IFN-γ stimulated
T4 sequence (P14902 whole entry): as above
Description: Figure 3 Comparison of IDO1 degradation efficiency for selected compounds. a) Detection of IDO1 levels using immunostaining. IFN‐γ stimulated HeLa cells were treated with the compounds for 24 h. IDO1 protein abundance was detected with IDO1 antibody. Data are mean values ± SD, n = 3. b) IDO1 protein levels in BxPC3 cells upon compounds treatment were detected using immunoblotting. BxPC3 cells were treated with IFN‐γ for 24 h prior to washout, followed by addition of compounds. Representative blot and quantified band intensities are shown (mean values ± SD, n = 3). See Figure S11a S12a for the uncropped blots. c) Key functions of hit compounds that influence degradation efficiency. d) Heatmap for IDO degradation efficiency. IDO1 levels were monitored as described in (c). See Table S1 for mean values and Figure S11b for the uncropped blots. e)–g) Dose dependent degradation of IDO1 protein in BxPC3 cells treated with iDeg‐7–9 and detected as described in (c). Representative data of n = 3 except for iDeg‐9 (n = 4). See Figure S12 S13 for the uncropped blots. h) Quantification of IDO1 protein levels from e‐g (mean values ± SD, n = 3 except for iDeg‐9 (n = 4). i) Tabulated inhibition and degradation ability of iDeg‐6–9. ND: not detected. j) Volcano plot of iDeg‐6‐induced changes on the global proteome. SKOV‐3 cells were treated with 10 µM iDeg‐6 or DMSO for 4 h followed by protein extraction, tryptic digest and LC‐MS/MS analysis (n = 4). Plot generated using UMSAP (T 0 = 0.5, S 0 = 0.5).
IFN-γ-stimulated Hela cells (5 ng/mL IFN-γ) were seeded in 96-well plates and incubated for 24 h. Subsequently, IFN-γ was washed out and cells were treated with compounds for additional 24 h. Cells were then washed once with PBS and fixed with 3.7% paraformaldehyde for 10 min at room temperature. Cells were washed three times with ice-cold PBS. […] Images were analyzed by SpectraMax Paradigm microplate reader (Molecular Devices) to extract IDO1 fluorescence intensity as well as the cell count. IDO1 fluorescence intensity was normalized to cell count. […]

IDO1 activity Inhibition (%) (recombinant human IDO1; at 14 µM, pre-incubation 37 °C 45 min, mean ± SD): ns (not significant)
in vitro IDO1 inhibition (in words) (recombinant human IDO1; up to 14 µM, incubated with IDO1 for 45 min): no activity
heme displacement from holo-IDO1 (in words) [1]: displaced heme to a similar extent
IC50 [2]: 490 ± 60 nM
IDO1 protein level by immunoblotting (in words) [3]: did not reduce the IDO1 protein level
shift in IDO1 melting temperature ΔTm / binding in TSA (in words) [4]: identical binding in the TSA assay
IDO1 staining fluorescence intensity (in words) [5]: did not induce IDO1 protein degradation
SMILES: CC(C)(C)c1ccc(S(=O)(=O)N2CC[C@@]3(C2)[C@@H]2C[C@H](C[C@H]3OC(=O)Nc3ccc(I)cc3)C2(C)C)cc1 [compound 22, (1R,2S,3R,5R)-1'-((4-(tert-butyl)phenyl)sulfonyl)-6,6-dimethylspiro[bicyclo[3.1.1]heptane-2,3'-pyrrolidin]-3-yl (4-iodophenyl)carbamate]
IDO1 activity IC50 [µM] (in vitro assay) (recombinant human IDO1; pre-incubation 37 °C 45 min, determined if inhibition at 14 µM higher than 50%): – (Inactive: >75% Kyn level observed up to a concentration of 14 µM and no IC50 value obtained)
